Measured values taken from paper PMC11124822, “Discovery and Anticancer Screening of Novel Oxindole-Based Derivative Bearing Pyridyl Group as Potent and Selective Dual FLT3/CDK2 Kinase Inhibitor” (Pharmaceuticals, 2024).
Like-named read-outs stand apart in the source and are kept apart here.

How the values were obtained:
Experiment in all cases: NCI-60 antiproliferative screen (SRB)
NCI/ADR-RES = format: cell-based, human; details: 48 h
SW-620 = format: cell-based, human; details: 48 h
786-0 = format: cell-based, human; details: 48 h
HCC-2998 = format: cell-based, human; details: 48 h
SNB-75 = details: Homo sapiens, SNB-75, 48 h, read-out: Growth inhibition (%)
Experimental: Anticancer activity was tested against 60 cancer cell lines (NCI-60) after 48h treatments with a single dosage of 10 μM of compounds by using sulforhodamine B assay [39] on the traditional 96-well platform. […] The human cancer cell lines of the NCI-60 panel are grown in RPMI 1640 medium supplemented with 5% FBS (fetal bovine serum) and 2 mM L-glutamine. […] For further analysis of promising compounds, five dose screens were performed against the NCI-60 panel. Drug treatments are performed in 5 doses using 10-fold or ½ log dose dilutions.

MDA-MB-435 = format: cell-based, human; details: 48 h
HOP-62 = format: cell-based, human; details: 48 h
TK-10 = format: cell-based, human; details: 48 h
HCT-116 = format: cell-based, human; details: 48 h
MDA-MB-231 = format: cell-based, human; details: 48 h
SK-MEL-5 = format: cell-based, human
IGROV1 = format: cell-based, human; details: five-dose, 48 h, IGROV1
HOP-92 = format: cell-based, human; details: 48 h
SF-295 = format: cell-based, human; details: 48 h
RXF 393 = format: cell-based, human; details: 48 h
HS 578T = format: cell-based, human; details: 48 h

SMILES: O=C1Nc2cc(Cl)ccc2C1=Cc1ccc(OCc2cccnc2)cc1 (mixture of isomers) [Compound 5l, (E/Z)-6-Chloro-3-[4-(pyridin-3-ylmethoxy)benzylidene] indolin-2-one]
- inhibition at 10 µM (NCI/ADR-RES; Homo sapiens, 10 µM single dose, NCI/ADR-RES (Ovarian), read-out: Growth inhibition (%)): 112%
- GI50 (NCI/ADR-RES; Homo sapiens, five-dose, NCI/ADR-RES): 3.45 µM
- TGI (NCI/ADR-RES; five-dose, NCI/ADR-RES): 23.60 µM
- inhibition at 10 µM (SW-620; Homo sapiens, 10 µM single dose, SW-620 (Colon), read-out: Growth inhibition (%)): 92.7%
- GI50 (SW-620; Homo sapiens, five-dose, SW-620): 2.76 µM
- TGI (SW-620; five-dose, SW-620): >100 µM
- inhibition at 10 µM (786-0; Homo sapiens, 10 µM single dose, 786-0 (Renal), read-out: Growth inhibition (%)): 47.2%
- GI50 (786-0; Homo sapiens, five-dose, 786-0): 26.6 µM
- CC50 (786-0; Homo sapiens, five-dose, 786-0, read-out: LC50 (the source's name)): > 100 µM
- TGI (786-0; five-dose, 786-0): >100 µM
- inhibition at 10 µM (HCC-2998; Homo sapiens, 10 µM single dose, HCC-2998 (Colon), read-out: Growth inhibition (%)): 50.9%
- GI50 (HCC-2998; Homo sapiens, five-dose, HCC-2998): 13.7 µM
- CC50 (HCC-2998; Homo sapiens, five-dose, HCC-2998, read-out: LC50 (the source's name)): > 100 µM
- TGI (HCC-2998; five-dose, HCC-2998): >100 µM
- inhibition at 10 µM (SNB-75): 18.3%
- inhibition at 10 µM (MDA-MB-435; Homo sapiens, 10 µM single dose, MDA-MB-435 (Melanoma), read-out: Growth inhibition (%)): 121%
- GI50 (MDA-MB-435; Homo sapiens, five-dose, MDA-MB-435): 4.44 µM
- TGI (MDA-MB-435; five-dose, MDA-MB-435): 76.90 µM
- inhibition at 10 µM (HOP-62; Homo sapiens, 10 µM single dose, HOP-62 (NSCLC), read-out: Growth inhibition (%)): 72.9%
- GI50 (HOP-62; Homo sapiens, five-dose, HOP-62): 12.9 µM
- CC50 (HOP-62; Homo sapiens, five-dose, HOP-62, read-out: LC50 (the source's name)): > 100 µM
- TGI (HOP-62; five-dose, HOP-62): >100 µM
- inhibition at 10 µM (TK-10; Homo sapiens, 10 µM single dose, TK-10 (Renal), read-out: Growth inhibition (%)): 29.4%
- GI50 (TK-10; Homo sapiens, five-dose, TK-10): 77.1 µM
- CC50 (TK-10; Homo sapiens, five-dose, TK-10, read-out: LC50 (the source's name)): > 100 µM
- TGI (TK-10; five-dose, TK-10): >100 µM
- inhibition at 10 µM (HCT-116; Homo sapiens, 10 µM single dose, HCT-116 (Colon), read-out: Growth inhibition (%)): 93%
- GI50 (HCT-116; Homo sapiens, five-dose, HCT-116): 6.97 µM
- TGI (HCT-116; five-dose, HCT-116): >100 µM
- inhibition at 10 µM (MDA-MB-231; Homo sapiens, 10 µM single dose, MDA-MB-231 (Breast), read-out: Growth inhibition (%)): 67.5%
- GI50 (MDA-MB-231; Homo sapiens, five-dose, MDA-MB-231/ATCC): 15.8 µM
- CC50 (MDA-MB-231; Homo sapiens, five-dose, MDA-MB-231/ATCC, read-out: LC50 (the source's name)): > 100 µM
- TGI (MDA-MB-231; five-dose, MDA-MB-231/ATCC): >100 µM
- CC50 (SK-MEL-5; Homo sapiens, SK-MEL-5, 48 h, five-dose, SK-MEL-5, read-out: LC50 (the source's name)): 65.6 µM
- inhibition at 10 µM (SK-MEL-5; Homo sapiens, 10 µM single dose, 48 h, SK-MEL-5 (Melanoma), read-out: Growth inhibition (%)): 153%
- GI50 (SK-MEL-5; Homo sapiens, five-dose, 48 h, SK-MEL-5): 3.46 µM
- CC50 (SK-MEL-5; five-dose, 48 h, SK-MEL-5, read-out: LC50 (the source's name)): 71.5 µM
- GI50 (IGROV1; Homo sapiens, IGROV-1): 10.7 µM
- CC50 (IGROV1; Homo sapiens, IGROV-1, read-out: LC50 (the source's name)): > 100 µM
- TGI (IGROV1): 3.32 µM
- inhibition at 10 µM (HOP-92; Homo sapiens, 10 µM single dose, HOP-92 (NSCLC), read-out: Growth inhibition (%)): 56.1%
- GI50 (HOP-92; Homo sapiens, five-dose, HOP-92): 6.51 µM
- TGI (HOP-92; five-dose, HOP-92): 62.70 µM
- inhibition at 10 µM (SF-295; Homo sapiens, 10 µM single dose, SF-295 (CNS), read-out: Growth inhibition (%)): 63.3%
- GI50 (SF-295; Homo sapiens, five-dose, SF-295): 10.6 µM
- TGI (SF-295; five-dose, SF-295): 39.90 µM
- GI50 (RXF 393; Homo sapiens, RXF 393, five-dose, RXF393): 9.07 µM
- CC50 (RXF 393; Homo sapiens, RXF 393, five-dose, RXF393, read-out: LC50 (the source's name)): > 100 µM
- inhibition at 10 µM (RXF 393; Homo sapiens, 10 µM single dose, RXF 393 (Renal), read-out: Growth inhibition (%)): 63.4%
- TGI (RXF 393; five-dose, RXF393): 90.20 µM
- inhibition at 10 µM (HS 578T; Homo sapiens, 10 µM single dose, HS 578T (Breast), read-out: Growth inhibition (%)): 62.7%
- GI50 (HS 578T; Homo sapiens, five-dose, HS 578T): 12.8 µM
- CC50 (HS 578T; Homo sapiens, five-dose, HS 578T, read-out: LC50 (the source's name)): > 100 µM
- TGI (HS 578T; five-dose, HS 578T): 98.10 µM
